Our source for the IC50 values is patent publication US20240209011A1, “HETEROAROMATIC PHOSPHONIUM SALTS FOR TREATING CANCER” (FLORATEK PHARMA S.A., priority 2021, published 2024).

What all share (type): cell-based
For one experiment, the system named is OVXF 899. Put plainly: Cell viability assay (CellTiter-Blue/CellTiter-Glow). To be noted: ovarian carcinoma cell line OVXF 899; absolute IC50; 72 h. In a few lines:
(§1)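 Absolute IC50 values came from the point where fitted concentration-response curves crossed T/C=50%. Viability was assessed with a fluorescent (CellTiter-Blue) or luminescent (CellTiter-Glo) readout following 72 h treatment of exponentially growing cells.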
(In general: Alamar Blue is a resazurin reagent that responds to reducing activity.)

In another experiment the test system is parental H69 cells. The experiment is described as above. To be noted: Homo sapiens, NCI-H69; SCLC parental H69 cells. The essentials:
as §1

Another experiment has as its system BT-474. Described as above. Conditions: Homo sapiens; breast carcinoma cell line BT-474; absolute IC50; 72 h. The essentials:
as §1

For a further experiment, the system named is HCC1806. The description is as above. Conditions: Homo sapiens; breast carcinoma cell line HCC1806; absolute IC50; 72 h. The essentials:
as §1

For another experiment, the system named is MDA-MB-231. The description is as above. Conditions: Homo sapiens; breast carcinoma cell line MDA-MB-231; absolute IC50; 72 h. In a few lines: as §1
For another experiment, the system named is MDA-MB-436. The description is as above. Conditions: Homo sapiens; breast carcinoma cell line MDA-MB-436; absolute IC50; 72 h. The essentials:
as §1

The subject of a further experiment is Panc-1. The experiment is described as above. Conditions: Homo sapiens; pancreatic carcinoma cell line Panc-1; absolute IC50; 72 h. In a few lines:
as §1

In the next experiment the test system is SH-SY-5Y. The experiment is described as above. Conditions: Homo sapiens, SH-SY5Y; brain carcinoma cell line SH-SY-5Y; absolute IC50; 72 h. In a few lines:
as §1

In the next experiment the test system is SK-N-AS. The experiment is described as above. To be noted: Homo sapiens; brain carcinoma cell line SK-N-AS; absolute IC50; 72 h. The essentials: as §1
The next experiment has as its system U-118. The experiment is described as above. To be noted: brain carcinoma cell line U-118; absolute IC50; 72 h. In a few lines:
as §1

The test system of a further experiment is U-251. Described as above. To be noted: Homo sapiens; brain carcinoma cell line U-251; absolute IC50; 72 h. The essentials: as §1
Another experiment concerns ZR-75-1. Described as above. Conditions: Homo sapiens; breast carcinoma cell line ZR-75-1; absolute IC50; 72 h. In a few lines:
as §1

Experiment [1] has as its system brain carcinoma PDX GBM14-CHA. Put plainly: PDX-derived cell culture cytotoxicity (CellTiter-Glo). To be noted: 120 h; PDX brain carcinoma GBM14-CHA (FIG. 3); 5 days. How it is done: (§2) PDX-derived cell cultures were obtained from tumors explanted from mice and isolated by mechanical and enzymatic dissociation. […] Cells were harvested and seeded in 96-wells plates at a density of 1.25 to 5×10^3 cells/well for cytotoxicity assays. Cells were incubated 48 h at 37° C. prior to addition of test molecules and vehicle (DMSO, 0.1%) at desired final concentrations. Cell viability was assessed before drugs' addition (To) and 5 days after test molecules addition by measuring ATP cell content using CellTiter-Glo® Luminescent Cell Viability Assay (Promega) according to the manufacturer's instructions. Luciferase activity was measured on a luminometer (PerkinElmer® EnVision™). Each concentration of compounds was tested in triplicate.
(§3) Viability was calculated as a percentage of ATP value compared to vehicle treated controls.
(§4) For PDX primary cell cultures, the tumour tissue was washed with PBS containing antibiotic-antimycotic and non-tumour tissue and necrotic tumour tissues were separated. The tumour tissue was transferred to a new dish and cut into 1-2 mm^3 fragments, resuspended in RPMI-1640 medium and centrifuged at 1,200 rpm for 6 min at room temperature. The pelleted material was resuspended with 15 mL of Tumour Cell Digestion Solution and incubated at 37° C. for 1 hour with agitation. Following further addition of media, centrifugation and passage through a […] cell strainer, the homogenous cell mixture was layered onto 15 mL of Ficoll-Paque PLUS in a 50 mL conical tube and centrifuged for 15 min at 1,600 rpm. The interface cells were collected, washed with media, separated by centrifugation at 1,200 rpm. The cell pellet was resuspended in serum free media supplemented with growth factors. 10,000 cells/wells were plated in a 96 well plate and incubated at 37° C., 5% CO2, 95% air and 100% relative humidity overnight. The cytotoxicity assay was conducted as above. IC50 values represent absolute IC50.
In general terms: In ATP-based viability assays light output follows the ATP content of the culture.

Experiment [2] deals with small cell lung carcinoma PDX SC6. Described as above. Conditions: 120 h; small cell lung carcinoma PDX SC6 (FIG. 13); 5 days. How it is done: as §2, §3, §4

For the compound `CCNC(=O)Oc1ccc2c(=O)cc(-c3ccc(CCCC[P+](c4ccccc4)(c4ccccc4)c4ccccc4)cc3)oc2c1O.[Br-]` [SND126A, 4-[4-[7-(Ethylcarbamoyloxy)-8-hydroxy-4-oxo-chromen-2-yl]phenyl]butyltriphenylphosphonium bromide], the 50% inhibitory concentration (IC50) in the experiment with OVXF 899 is 17.6 µM; in the experiment on parental H69 cells, 3.63 µM.
For `O=c1cc(-c2ccc(CCCC[P+](c3ccccc3)(c3ccccc3)c3ccccc3)cc2)oc2c3c(ccc12)OCO3.[Br-]` [SND123, 4-[4-(6-oxo-[1,3]dioxolo[4,5-h]chromen-8-yl)phenyl]butyl-triphenylphosphonium bromide], the IC50 was determined as 1.6 µM in the experiment on BT-474; 2.3 µM in the experiment with HCC1806; 2 µM in the experiment with MDA-MB-231; 2.3 µM with MDA-MB-436; 2.32 µM with Panc-1; 4.9 µM with SH-SY-5Y. In addition, the IC50 is 3.5 µM in the experiment on SK-N-AS, 8.3 µM in the experiment with U-118, 1.87 µM with U-251 and 2.5 µM in the experiment on ZR-75-1.
Turning to `COc1c(O)ccc2c(=O)cc(-c3ccc(CCCC[P+](c4ccccc4)(c4ccccc4)c4ccccc4)cc3)oc12.[Br-]` [SND140, (4-(4-(7-hydroxy-8-methoxy-4-oxo-4H-chromen-2-yl)phenyl)butyl)triphenylphosphonium bromide], the results for the IC50 in experiment [1] and in experiment [2] were 6.47 µM and 7.02 µM, respectively.

Usually IC50 stands for the point on the concentration scale where inhibition reaches its midpoint.
